System: BV2 microglial cells
Experiment: Poly I:C-induced TNFα release by BV2 microglia
Assay type: cell-based, murine
Conditions: 5 and 10 µM
Description: The BV2 cells are cultured at 37° C. in a humidified atmosphere with 5% CO2 in high D-glucose (4.5 g/L) Dulbecco’s modified Eagle’s medium (Sigma, Rehovot, Israel) supplemented with 5% heat-inactivated fetal bovine serum, streptomycin (100 µg/ml), and penicillin (100 units/ml) and sodium pyruvate (1 mM; all from Biological Industries Ltd., Kibbutz Beit Haemek, Israel). 24 hours before experiments with LPS stimulation, the BV2 cells are split into 24 well plates, 2×10^5 cells per well, covered with 1 ml of growth medium and allowed to attach overnight. 24 hr before experiments with α-synuclein, the BV2 cells are split into 96-well plates, 50,000 (5×10^4) cells per well, covered with 200 µl of growth medium and allowed to attach overnight. […]

## C=C(C)[C@@H]1CCC(C)=C[C@H]1c1c(O)cc(CCCCC)cc1O [CBD, cannabidiol]
  Poly I:C-induced TNFα release: significantly decreased

From US20230270764A1, “COMPOSITION COMPRISING CANNABINOIDS, TERPENES, AND FLAVONOIDS FOR TREATING DEPRESSION” (priority 2020, published 2023)
